Data as given in patent publication US6898533B1, “Methods for predicting the biological, chemical, and physical properties of molecules from their spectral properties” (The United States of America as represented by the …, priority 2000, dated 2005).

system: not given; test: not given; conditions: formation of singlet oxygen in fluid solutions; cited from earlier work

Row | Compound | Quantum Yield
1 | c1ccc(-c2oc(-c3ccccc3)c3ccccc23)cc1 [1,3-Diphenylisobenzofuran] | 0.26
2 | Cn1ccc2ccccc21 [1-Methylindole] | 0.35
3 | O=C1c2ccccc2C(=O)c2ccccc21 [9,10-Anthraquinone] | 0.15
4 | C(=C\c1ccccc1)/c1ccccc1 [(E)-Stilbene] | 0.08
5 | CC(=O)c1ccccc1 [Acetophenone] | 0.29
6 | c1ccc2nc3ccccc3cc2c1 [Acridine] | 0.83
7 | c1ccc2cc3ccccc3cc2c1 [Anthracene] | 0.83
8 | O=C1c2ccccc2Cc2ccccc21 [Anthrone] | 0.25
9 | O=C(c1ccccc1)c1ccccc1 [Benzophenone] | 0.29
10 | CC(=O)C(C)=O [Biacetyl] | 0.57
11 | c1ccc2c(c1)Cc1ccccc1-2 [Flourene] | 0.74
12 | O=C1C=Cc2cccc3cccc1c23 [Phenalen-1-one] | 0.94
13 | CC(C)(C)C(=S)c1ccccc1 [Pivalothiophenone] | 1.0
14 | O=c1ccc2cc3ccoc3cc2o1 [Psoralen] | 0.0055
15 | c1cc2ccc3cccc4ccc(c1)c2c34 [Pyrene] | 0.71
16 | c1ccc2cc3cc4ccccc4cc3cc2c1 [Tetracene] | 0.70
17 | O=c1c2ccccc2oc2ccccc12 [Xanthen-9-one] | 0.33

system: estrogen receptor; test: estrogen receptor relative binding affinity, expanded training set of 107 compounds; conditions: input class, 107-compound training set
Source text: The training set included weak estrogen receptor binders in addition to strong and medium estrogen receptor binders.
For this model, strong estrogen receptor binders were defined as having log(RBA)>−0.25 and weak estrogen receptor binders were defined as having log(RBA)<−3.0. Medium estrogen receptor binders were defined as having log(RBA) in between.

Row | Compound | Class
18 | C[C@]12CC[C@@H]3c4ccc(O)cc4CC[C@H]3[C@@H]1CC[C@H]2O [17α-Estradiol] | S (strong estrogen receptor binders were defined as having log(RBA)>−0.25)
19 | CC/C(=C(/CC)c1ccc(O)cc1)c1ccc(O)cc1 [Diethystibesterol] | S (strong estrogen receptor binders were defined as having log(RBA)>−0.25)
20 | O=c1c(-c2ccc(O)cc2)coc2cc(O)cc(O)c12 [Genistein] | M (Medium estrogen receptor binders were defined as having log(RBA) in between)
21 | CCCCN(C)C(=O)CCCCCCCCCC[C@@H]1Cc2cc(O)ccc2[C@H]2CC[C@]3(C)[C@@H](O)CC[C@H]3[C@H]12 [ICI 164,384] | S (strong estrogen receptor binders were defined as having log(RBA)>−0.25)
22 | CC/C(=C(\c1ccccc1)c1ccc(OCCN(C)C)cc1)c1ccccc1 [Tamoxifen] | S (strong estrogen receptor binders were defined as having log(RBA)>−0.25)
23 | C(=C(c1ccccc1)c1ccccc1)c1ccccc1 [Triphenylethylene] | W (weak estrogen receptor binders were defined as having log(RBA)<−3.0)

system: estrogen receptor; test: estrogen receptor binding class of the 30-compound training set; conditions: not given
Source text: Two Spectral Data-Activity Relationship (SDAR) models were established, based on ^13C NMR and EI MS spectra, for 30 estrogenic chemicals whose relative binding affinities (RBA) for the alpha (ERα) and beta (ERβ) estrogen receptors are available.
Strong binders to the estrogen receptor were classified as having a log (RBA) over 0.0, and medium binders to the estrogen receptor were classified as having a log (RBA) of less than or equal to 0.0.

Row | Compound | Class Input | RBA class in words
24 | C[C@]12CCC(=O)C[C@@H]1CC[C@@H]1[C@@H]2CC[C@]2(C)C(=O)CC[C@@H]12 [5α-Androstanedione] | M (key: Strong binders to the estrogen receptor were classified as having a log (RBA) over 0.0; M: medium binders to the estrogen receptor were classified as having a log (RBA) of less than or equal to 0.0) | medium
25 | C[C@]12CCC(=O)C[C@H]1CC[C@@H]1[C@@H]2CC[C@]2(C)C(=O)CC[C@@H]12 [5β-Androstanedione] | M (key: Strong binders to the estrogen receptor were classified as having a log (RBA) over 0.0; M: medium binders to the estrogen receptor were classified as having a log (RBA) of less than or equal to 0.0) | medium
26 | CC/C(=C(/CC)c1ccc(O)cc1)c1ccc(O)cc1 [Diethystibesterol] | S (key: Strong binders to the estrogen receptor were classified as having a log (RBA) over 0.0; M: medium binders to the estrogen receptor were classified as having a log (RBA) of less than or equal to 0.0) | –
27 | C[C@]12CCC(=O)C[C@@H]1CC[C@@H]1[C@@H]2CC[C@]2(C)[C@@H](O)CC[C@@H]12 [Dihydrotestosterone] | M (key: Strong binders to the estrogen receptor were classified as having a log (RBA) over 0.0; M: medium binders to the estrogen receptor were classified as having a log (RBA) of less than or equal to 0.0) | –

same assay, conditions: SDAR training input endpoint class, 30 compounds

Row | Compound | Class Input
28 | C[C@]12CC[C@@H]3c4ccc(O)cc4CC[C@H]3[C@@H]1CC[C@H]2O [17α-Estradiol] | S (Strong binders to the estrogen receptor were classified as having a log (RBA) over 0.0)
29 | O=c1c(-c2ccc(O)cc2)coc2cc(O)cc(O)c12 [Genistein] | S (Strong binders to the estrogen receptor were classified as having a log (RBA) over 0.0)
30 | CCCCN(C)C(=O)CCCCCCCCCC[C@@H]1Cc2cc(O)ccc2[C@H]2CC[C@]3(C)[C@@H](O)CC[C@H]3[C@H]12 [ICI 164,384] | S (Strong binders to the estrogen receptor were classified as having a log (RBA) over 0.0)
31 | CC/C(=C(\c1ccccc1)c1ccc(OCCN(C)C)cc1)c1ccccc1 [Tamoxifen] | S (Strong binders to the estrogen receptor were classified as having a log (RBA) over 0.0)
32 | C[C@H]1CCC[C@@H](O)CCCCCc2cc(O)cc(O)c2C(=O)O1 [β-Zearanol] | M (medium binders to the estrogen receptor were classified as having a log (RBA) of less than or equal to 0.0)

system: not listed separately; test: quantum yield for photosensitized production of singlet oxygen; format: physicochemical; conditions: not given
Source text: Phototosensitized oxidations involving singlet oxygen, a strong oxidant, are implicated in photodynamic inactivation of viruses and cells, in phototherapy for cancer, in photocarcinogenesis and in photodegradation of dyes and polymers. Quenching of excited singlet and triplet states of many substances by ground state molecular oxygen produces singlet oxygen; the lowest electronically excited singlet state of molecular oxygen. A compilation of the quantum yields for the formation of singlet oxygen in fluid solutions for over 700 substances is available from the Notre Dame Radiation Laboratory—Radiation Chemistry Data Center.
The compounds are divided into two endpoint classes based upon having a high quantum yield for production of singlet oxygen (H, QY>0.50) or a low quantum yield for production of singlet oxygen (L, QY<0.50).

Row | Compound | Endpoint Class
33 | c1ccc(-c2ccccc2)cc1 [Biphenyl] | H (key: high quantum yield for production of singlet oxygen (H, QY>0.50); low quantum yield for production of singlet oxygen (L, QY<0.50))

same assay, conditions: class from singlet oxygen quantum yield

Row | Compound | Endpoint Class
34 | c1ccc(-c2oc(-c3ccccc3)c3ccccc23)cc1 [1,3-Diphenylisobenzofuran] | L (low quantum yield for production of singlet oxygen (L, QY<0.50))
35 | Cn1ccc2ccccc21 [1-Methylindole] | L (low quantum yield for production of singlet oxygen (L, QY<0.50))
36 | O=C1c2ccccc2C(=O)c2ccccc21 [9,10-Anthraquinone] | L (low quantum yield for production of singlet oxygen (L, QY<0.50))
37 | C(=C\c1ccccc1)/c1ccccc1 [(E)-Stilbene] | L (low quantum yield for production of singlet oxygen (L, QY<0.50))
38 | CC(=O)c1ccccc1 [Acetophenone] | L (low quantum yield for production of singlet oxygen (L, QY<0.50))
39 | c1ccc2nc3ccccc3cc2c1 [Acridine] | H (high quantum yield for production of singlet oxygen (H, QY>0.50))
40 | c1ccc2cc3ccccc3cc2c1 [Anthracene] | H (high quantum yield for production of singlet oxygen (H, QY>0.50))
41 | O=C1c2ccccc2Cc2ccccc21 [Anthrone] | L (low quantum yield for production of singlet oxygen (L, QY<0.50))
42 | O=C(C(=O)c1ccccc1)c1ccccc1 [Benzil] | H (high quantum yield for production of singlet oxygen (H, QY>0.50))
43 | O=C(c1ccccc1)c1ccccc1 [Benzophenone] | L (low quantum yield for production of singlet oxygen (L, QY<0.50))
44 | CC(=O)C(C)=O [Biacetyl] | H (high quantum yield for production of singlet oxygen (H, QY>0.50))
45 | c1ccc2c(c1)Cc1ccccc1-2 [Flourene] | H (high quantum yield for production of singlet oxygen (H, QY>0.50))
46 | O=C1C=Cc2cccc3cccc1c23 [Phenalen-1-one] | H (high quantum yield for production of singlet oxygen (H, QY>0.50))
47 | CC(C)(C)C(=S)c1ccccc1 [Pivalothiophenone] | H (high quantum yield for production of singlet oxygen (H, QY>0.50))
48 | O=c1ccc2cc3ccoc3cc2o1 [Psoralen] | L (low quantum yield for production of singlet oxygen (L, QY<0.50))
49 | c1cc2ccc3cccc4ccc(c1)c2c34 [Pyrene] | H (high quantum yield for production of singlet oxygen (H, QY>0.50))
50 | c1ccc2cc3cc4ccccc4cc3cc2c1 [Tetracene] | H (high quantum yield for production of singlet oxygen (H, QY>0.50))
51 | O=c1c2ccccc2oc2ccccc12 [Xanthen-9-one] | L (low quantum yield for production of singlet oxygen (L, QY<0.50))

target: T1, alpha (ERα) estrogen receptor (Homo sapiens, UniProt P03372); test: not given; conditions: cited from earlier work
T1 sequence (P03372 1-595): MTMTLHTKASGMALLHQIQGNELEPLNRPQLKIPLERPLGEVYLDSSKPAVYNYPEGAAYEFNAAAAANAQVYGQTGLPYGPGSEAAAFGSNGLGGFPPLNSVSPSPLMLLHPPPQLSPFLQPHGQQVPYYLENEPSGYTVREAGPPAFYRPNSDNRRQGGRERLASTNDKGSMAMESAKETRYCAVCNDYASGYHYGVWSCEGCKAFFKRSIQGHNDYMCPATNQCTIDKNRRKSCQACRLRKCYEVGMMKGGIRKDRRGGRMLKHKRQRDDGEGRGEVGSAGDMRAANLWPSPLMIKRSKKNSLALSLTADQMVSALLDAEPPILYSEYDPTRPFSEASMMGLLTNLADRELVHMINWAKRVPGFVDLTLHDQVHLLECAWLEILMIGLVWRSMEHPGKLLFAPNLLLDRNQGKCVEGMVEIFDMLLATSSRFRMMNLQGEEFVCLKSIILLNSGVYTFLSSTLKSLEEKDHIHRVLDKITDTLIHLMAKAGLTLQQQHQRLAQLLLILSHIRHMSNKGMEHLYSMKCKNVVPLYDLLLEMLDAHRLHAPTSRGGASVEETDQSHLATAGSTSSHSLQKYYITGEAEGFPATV

Row | Compound | Log-(RBA) alpha
52 | C[C@]12CCC(=O)C[C@@H]1CC[C@@H]1[C@@H]2CC[C@]2(C)C(=O)CC[C@@H]12 [5α-Androstanedione] | <−2.0
53 | C[C@]12CCC(=O)C[C@H]1CC[C@@H]1[C@@H]2CC[C@]2(C)C(=O)CC[C@@H]12 [5β-Androstanedione] | <−2.0

same assay, conditions: log of relative binding affinity, 17-β-estradiol RBA = 100; cited from earlier work

Row | Compound | Log-(RBA) alpha
54 | C[C@H]1CCC[C@@H](O)CCCCCc2cc(O)cc(O)c2C(=O)O1 [β-Zearanol] | −1.20

system: estrogen receptor; test: not given; conditions: 107-compound training set; cited from earlier work

Row | Compound | log RBA
55 | C[C@]12CC[C@@H]3c4ccc(O)cc4CC[C@H]3[C@@H]1CC[C@H]2O [17α-Estradiol] | 0.49
56 | CC/C(=C(/CC)c1ccc(O)cc1)c1ccc(O)cc1 [Diethystibesterol] | 2.60
57 | CCCCN(C)C(=O)CCCCCCCCCC[C@@H]1Cc2cc(O)ccc2[C@H]2CC[C@]3(C)[C@@H](O)CC[C@H]3[C@H]12 [ICI 164,384] | 1.16
58 | C(=C(c1ccccc1)c1ccccc1)c1ccccc1 [Triphenylethylene] | −2.78

target: beta (ERβ) estrogen receptor (Rattus norvegicus, UniProt Q62986); test: not given; conditions: cited from earlier work
Sequence (Q62986 whole entry): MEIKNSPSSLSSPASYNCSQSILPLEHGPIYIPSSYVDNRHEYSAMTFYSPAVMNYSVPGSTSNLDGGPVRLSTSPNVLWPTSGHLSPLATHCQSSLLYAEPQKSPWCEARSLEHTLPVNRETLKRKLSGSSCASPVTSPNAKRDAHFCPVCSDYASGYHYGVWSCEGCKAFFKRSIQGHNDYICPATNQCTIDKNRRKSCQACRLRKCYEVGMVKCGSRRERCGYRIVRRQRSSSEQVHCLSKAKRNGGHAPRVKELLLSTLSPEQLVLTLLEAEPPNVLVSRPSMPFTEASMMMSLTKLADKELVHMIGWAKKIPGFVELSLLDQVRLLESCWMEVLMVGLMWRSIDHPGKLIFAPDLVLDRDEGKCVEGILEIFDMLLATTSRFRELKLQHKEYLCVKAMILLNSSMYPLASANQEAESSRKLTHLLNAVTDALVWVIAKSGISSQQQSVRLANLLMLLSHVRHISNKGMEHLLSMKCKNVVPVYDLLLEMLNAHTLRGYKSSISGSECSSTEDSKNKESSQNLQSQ

Row | Compound | Log-(RBA) beta
59 | C[C@]12CCC(=O)C[C@@H]1CC[C@@H]1[C@@H]2CC[C@]2(C)C(=O)CC[C@@H]12 [5α-Androstanedione] | <−2.0
60 | C[C@]12CCC(=O)C[C@H]1CC[C@@H]1[C@@H]2CC[C@]2(C)C(=O)CC[C@@H]12 [5β-Androstanedione] | <−2.0
61 | CC/C(=C(/CC)c1ccc(O)cc1)c1ccc(O)cc1 [Diethystibesterol] | 2.47
62 | C[C@]12CCC(=O)C[C@@H]1CC[C@@H]1[C@@H]2CC[C@]2(C)[C@@H](O)CC[C@@H]12 [Dihydrotestosterone] | −0.77

same assay, conditions: log of relative binding affinity, 17-β-estradiol RBA = 100; cited from earlier work

Row | Compound | Log-(RBA) beta
63 | O=c1oc2cc(O)ccc2c2oc3cc(O)ccc3c12 [Coumestrol] | 2.27
64 | C[C@]12CC[C@@H]3c4ccc(O)cc4CC[C@H]3[C@@H]1C[C@@H](O)[C@@H]2O [Estriol] | 1.32
65 | CCCCN(C)C(=O)CCCCCCCCCC[C@@H]1Cc2cc(O)ccc2[C@H]2CC[C@]3(C)[C@@H](O)CC[C@H]3[C@H]12 [ICI 164,384] | 2.22
